Measured values as given in ChEMBL document CHEMBL1201862, “PubChem BioAssay data set” (2004).
Calls of active or inactive are those of the source.

Assays:
[1] = Fluorescence-based cell-based high throughput dose response assay for inhibitors of the interaction of nucleotide-binding oligomerization domain containing 2 (NOD2) and the receptor-interacting serine-threonine kinase 2 (RIPK2).; type: functional; conditions: Homo sapiens
[2] = Luminescence Cell-Based Dose Retest to Confirm Inhibitors of Cancer Stem Cells. [Related pubchem assays (depositor defined):AID2717, AID2721]; type: functional; conditions: Homo sapiens
[3] = viability inhibitors of stage V gametocytes – luminescence, dose response (AID 1117278); type: functional, cell-based;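 also: gametocytes exposed to compound for 24 hours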
[4] = viability loss in human Jurkat cells – cell-based, luminescence, cytotoxicity control for P. falciparum gametocyte viability project, dose response (AID 1117277); type: functional;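 also: potency reflects loss of cellular ATP meaning fewer viable cells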
HEK293 [5] = assay: cells; type: functional, cell-based; conditions: Homo sapiens
[6] = target: T1, Nuclear receptor subfamily 0 group B member 1 (Homo sapiens, UniProt P51843); assay: Luminescence-based cell-based high throughput dose response assay for inhibitors of the orphan nuclear receptor subfamily 0, group B, member 1 (DAX1; NR0B1). [Related pubchem assays (depositor defined):AID504766, AID504790]; type: functional
T1 sequence (P51843 whole entry): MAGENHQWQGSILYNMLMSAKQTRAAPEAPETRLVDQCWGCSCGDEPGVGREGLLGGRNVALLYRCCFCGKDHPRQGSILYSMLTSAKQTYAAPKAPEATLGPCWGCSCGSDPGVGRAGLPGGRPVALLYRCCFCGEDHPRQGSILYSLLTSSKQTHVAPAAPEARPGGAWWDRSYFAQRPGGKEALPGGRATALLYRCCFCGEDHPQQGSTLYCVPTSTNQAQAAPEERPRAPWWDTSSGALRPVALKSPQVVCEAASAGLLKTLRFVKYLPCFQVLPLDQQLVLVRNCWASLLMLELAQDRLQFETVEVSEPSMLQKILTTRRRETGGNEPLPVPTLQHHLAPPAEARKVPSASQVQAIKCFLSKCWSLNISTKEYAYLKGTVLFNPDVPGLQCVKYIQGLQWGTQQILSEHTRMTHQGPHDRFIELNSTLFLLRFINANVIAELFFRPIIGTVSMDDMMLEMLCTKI

[7] = target: T2, Sentrin-specific protease 8 (Homo sapiens, UniProt Q96LD8); type: functional
T2 sequence (Q96LD8 whole entry): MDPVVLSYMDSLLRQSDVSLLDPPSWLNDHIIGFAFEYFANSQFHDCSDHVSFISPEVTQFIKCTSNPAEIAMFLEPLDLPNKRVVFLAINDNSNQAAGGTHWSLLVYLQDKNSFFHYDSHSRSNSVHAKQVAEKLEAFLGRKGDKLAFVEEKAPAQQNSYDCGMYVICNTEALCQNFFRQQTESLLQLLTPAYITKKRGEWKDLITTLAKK

[8] = target: T2, Sentrin-specific protease 8; type: functional; remark: listed apart in the source
[9] = target: NAD-dependent protein deacylase sirtuin-5, mitochondrial (Homo sapiens, UniProt Q9NXA8); assay: sirtuin-5 deacylation blockers, concentration series – biochemical, fluorescence imaging, cherry-pick, set 5, dose response (AID 720591);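 also: desuccinylation of succinyl peptide AMC substrate read as fluorescence after trypsin release; potency of inhibitors that lower fluorescence and may act on trypsin instead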
Chain of NAD-dependent protein deacylase sirtuin-5, mitochondrial (Q9NXA8 whole entry): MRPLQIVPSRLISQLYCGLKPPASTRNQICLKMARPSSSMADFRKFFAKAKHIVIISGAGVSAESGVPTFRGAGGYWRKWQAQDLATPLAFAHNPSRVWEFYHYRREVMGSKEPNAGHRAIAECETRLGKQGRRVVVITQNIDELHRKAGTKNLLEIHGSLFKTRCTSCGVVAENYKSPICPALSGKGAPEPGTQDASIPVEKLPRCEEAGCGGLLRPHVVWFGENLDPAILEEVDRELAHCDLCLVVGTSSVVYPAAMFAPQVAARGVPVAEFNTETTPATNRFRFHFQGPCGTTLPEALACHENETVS

[10] = target: Heat shock protein HSP 90-alpha (Homo sapiens, UniProt P07900); type: functional, organism-based
Phospholipase A2 = Phospholipase A2 (Homo sapiens, UniProt P04054); type: functional;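 also: confirmatory dose-response counterscreen on phospholipase A2, testing hits that came from an ultra-high-throughput screen for ATG4B inhibitors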
Chain of Phospholipase A2 (P04054 whole entry): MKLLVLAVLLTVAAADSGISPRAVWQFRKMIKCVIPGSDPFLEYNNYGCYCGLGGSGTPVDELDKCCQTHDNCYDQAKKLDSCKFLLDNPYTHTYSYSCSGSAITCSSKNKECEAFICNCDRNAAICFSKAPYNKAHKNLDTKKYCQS

Cysteine protease ATG4B = target: T3, Cysteine protease ATG4B (Homo sapiens, UniProt Q9Y4P1); type: functional;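 also: Fluorescence-based dose-response confirmation assay measuring inhibition of ATG4B activity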
T3 sequence (Q9Y4P1 whole entry): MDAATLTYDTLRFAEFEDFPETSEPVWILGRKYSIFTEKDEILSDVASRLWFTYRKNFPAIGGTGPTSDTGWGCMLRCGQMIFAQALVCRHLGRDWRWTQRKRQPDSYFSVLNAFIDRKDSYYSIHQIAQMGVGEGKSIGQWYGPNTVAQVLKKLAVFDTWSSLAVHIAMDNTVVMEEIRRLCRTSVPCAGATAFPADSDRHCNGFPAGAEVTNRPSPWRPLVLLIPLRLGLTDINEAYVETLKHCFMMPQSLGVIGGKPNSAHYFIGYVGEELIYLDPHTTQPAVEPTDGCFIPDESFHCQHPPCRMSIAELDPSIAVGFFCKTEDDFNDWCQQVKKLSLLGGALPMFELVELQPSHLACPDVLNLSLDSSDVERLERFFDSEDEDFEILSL

[11] = target: T4, Rac GTPase-activating protein 1 (Homo sapiens, UniProt Q9H0H5); assay: blockers of MgcRacGAP-driven Rac1 GTP hydrolysis – biochemical, ADP Hunter fluorescence, primary and confirmatory, confirmation (AID 624330); type: functional
T4 sequence (Q9H0H5 whole entry): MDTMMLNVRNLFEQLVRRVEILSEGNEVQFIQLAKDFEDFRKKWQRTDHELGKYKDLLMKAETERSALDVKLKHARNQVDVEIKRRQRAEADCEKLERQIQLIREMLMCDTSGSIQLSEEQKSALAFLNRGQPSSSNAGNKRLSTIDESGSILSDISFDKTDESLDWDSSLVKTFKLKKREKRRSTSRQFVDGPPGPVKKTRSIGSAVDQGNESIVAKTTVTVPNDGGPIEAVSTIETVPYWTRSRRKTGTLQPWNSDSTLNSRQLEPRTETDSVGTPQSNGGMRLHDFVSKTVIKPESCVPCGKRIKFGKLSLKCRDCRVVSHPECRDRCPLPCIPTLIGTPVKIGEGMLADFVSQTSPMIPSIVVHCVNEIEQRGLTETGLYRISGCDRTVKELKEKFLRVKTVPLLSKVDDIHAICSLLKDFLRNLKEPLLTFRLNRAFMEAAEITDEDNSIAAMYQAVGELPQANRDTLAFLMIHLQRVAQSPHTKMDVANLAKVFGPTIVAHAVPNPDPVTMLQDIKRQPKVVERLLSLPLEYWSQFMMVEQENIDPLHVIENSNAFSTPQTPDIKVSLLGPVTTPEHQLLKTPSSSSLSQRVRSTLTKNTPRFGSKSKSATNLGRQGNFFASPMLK

[12] = target: T5, Mannose-6-phosphate isomerase (Homo sapiens, UniProt P34949); assay: MPI inhibition at elevated mannose 6-phosphate – biochemical, fluorescence intensity, high mannose 6-phosphate, primary screen (AID 1220)
T5 sequence (P34949 whole entry): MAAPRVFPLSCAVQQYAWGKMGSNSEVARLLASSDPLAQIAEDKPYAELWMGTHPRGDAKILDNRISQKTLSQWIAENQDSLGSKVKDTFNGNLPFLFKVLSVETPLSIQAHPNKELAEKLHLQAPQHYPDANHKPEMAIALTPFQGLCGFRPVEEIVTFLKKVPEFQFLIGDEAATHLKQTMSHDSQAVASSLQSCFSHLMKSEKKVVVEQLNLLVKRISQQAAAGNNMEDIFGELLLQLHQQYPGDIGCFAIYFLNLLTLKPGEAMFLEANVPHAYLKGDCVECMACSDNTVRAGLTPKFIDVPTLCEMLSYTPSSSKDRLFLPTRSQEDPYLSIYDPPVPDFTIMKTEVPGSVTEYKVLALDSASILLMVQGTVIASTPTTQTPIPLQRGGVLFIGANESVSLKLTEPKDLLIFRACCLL

HEK293 [13] = assay: EBV LMP1 TES2 canonical NF-kB signalling blockers – cell-based, HEK293, luciferase, cherry-pick, dose response (AID 588343); type: functional; conditions: Homo sapiens
Vero = assay: viability loss in Vero cells – cell-based, plate reader, cherry-pick samples, cytotoxicity control, dose response (AID 687020); type: functional; conditions: Chlorocebus sabaeus
[14] = reduction of Shn3 3'UTR-driven luciferase in osteoblasts – cell-based, Clone20 osteoblasts, firefly luciferase, cherry-picked, dose response (AID 624132); type: functional;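 also: firefly luciferase luminescence from reporter carrying the Shn3 3'UTR in osteoblasts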
[15] = loss of viability in HepG2 cells – cell-based, CellTiter-Glo, cherry-picked, cytotoxicity control for Shn3 inhibitor project, dose response (AID 624134); type: functional
[16] = non-specific 3'UTR reporter inhibition in Clone20-Shn3RL – cell-based, Renilla luciferase, cherry-picked, counter-screen for Shn3 inhibitor project, dose response (AID 624133); type: functional
Paired box protein Pax-8 = Paired box protein Pax-8 (Homo sapiens, UniProt Q06710); assay: PAX8 transcriptional activity inhibition in RMG-I – RMG-I cells, luciferase, cherry-pick, dose response (AID 687027); type: functional, cell-based;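 also: luciferase reporter driven by Pax8 target thyroperoxidase promoter measured by SteadyGlo luminescence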
Chain of Paired box protein Pax-8 (Q06710 whole entry): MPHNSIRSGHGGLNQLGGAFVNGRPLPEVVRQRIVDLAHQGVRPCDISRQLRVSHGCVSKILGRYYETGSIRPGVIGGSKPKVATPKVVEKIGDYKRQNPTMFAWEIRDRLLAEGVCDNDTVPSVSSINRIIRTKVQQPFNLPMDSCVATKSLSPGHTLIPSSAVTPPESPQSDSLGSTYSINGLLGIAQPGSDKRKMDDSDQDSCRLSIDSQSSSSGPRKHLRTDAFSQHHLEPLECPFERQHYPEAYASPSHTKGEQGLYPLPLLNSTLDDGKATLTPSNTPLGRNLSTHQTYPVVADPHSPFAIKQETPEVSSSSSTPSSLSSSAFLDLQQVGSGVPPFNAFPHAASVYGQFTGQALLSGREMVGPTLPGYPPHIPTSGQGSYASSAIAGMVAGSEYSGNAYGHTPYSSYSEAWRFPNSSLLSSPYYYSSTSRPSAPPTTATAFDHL

[17] = viability loss in HeLa cells – cytotoxicity control for MgcRacGAP inhibitor project, dose response (AID 624300); type: functional
[18] = blockade of melanocortin 4 receptor signaling – cell-based, plate reader, cherry pick, counter-screen for LGR2 antagonist project, dose response (AID 743444); type: functional;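 also: transfected HEK 293 cells stimulated with alpha-MSH peptide; potency of inhibitors of the alpha-MSH evoked signal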
[19] = blockers of bursicon-stimulated LGR2 cAMP reporter – cell-based, HEK293, CRE-luciferase reporter, cherry pick, set 2, dose response (AID 743343); type: functional;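 also: transfected cells were stimulated with diluted bursicon conditioned medium after compound addition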
[20] = A549 cell cytotoxicity, dose response, cytotoxicity control, plate reader, cherry-pick, antagonist series (AID 743412); type: functional, cell-based
[21] = toxicity toward HepG2 liver cells – cell-based, plate reader, cherry-pick, antagonist series, cytotoxicity control, dose response (AID 743416); type: functional
[22] = rise of 4N DNA cells, HeLa – IC50, dose response (AID 1117351); type: functional, cell-based
[23] = rise of 2N DNA cells, HeLa – IC50, dose response (AID 1117349); type: functional, cell-based

O=C(CN(c1cccc(C(F)(F)F)c1)S(=O)(=O)c1ccc(Cl)c([N+](=O)[O-])c1)NCc1ccc(F)cc1
IC50 [1]: 5.86 µM (active)
AC50 [2]: 1.81 µM (active)

SC1=NC[C@H](c2ccccc2)N1CCCCC1CCCCC1
IC50 [3]: > 109 µM (inactive)
IC50 [4]: 79.3 µM (inactive)

COc1ccc(NC(=O)NNC(=O)CCC(=O)Nc2ccccc2Cl)cc1
IC50 (HEK293 [5]): > 67.5 µM (inactive)
IC50 [6]: > 67.5 µM (inactive)

CCN(CC)CC(=O)Nc1ccc2c(c1)N(C(=O)CN(CC)CC)c1ccccc1CC2
IC50 [7]: 19.1 µM (active)
IC50 [8]: 15.4 µM (active)

COc1cccc(-n2c(SCC(N)=O)nnc2-c2ccco2)c1
AC50 [9]: 22.1 µM (active)

Oc1ccc(N=Nc2nc(-c3ccccc3)c(-c3ccccc3)[nH]2)cc1
AC50 [10]: 4.75 µM (active)
IC50 (Phospholipase A2): 6.36 µM (active)
IC50 (Cysteine protease ATG4B): 9.13 µM (active)
AC50 [2]: 3.9 µM (active)

COc1ccc2c(c1)-c1nc(N)sc1CC2
IC50 [11]: 29.5 µM (active)
IC50 [12]: 23.8 µM (active)

CC(NC(=O)CCc1nnc(CCCc2ccccc2)o1)c1ccccc1 (configuration not stated)
IC50 [3]: > 109 µM (inactive)
IC50 [4]: > 83.3 µM (inactive)

Cc1cc(C)nc(N=C(Nc2ccccc2Br)NS(=O)(=O)Cc2ccccc2)n1
AC50 (HEK293 [13]): 33.5 µM (active)

O=C(Nc1ccccc1)C(Cl)C(=O)c1ccccc1 (configuration not stated)
AC50 [10]: 0.786 µM (active)

COc1ccc(S(=O)(=O)NCc2ccc(C(=O)NCc3cccnc3)cc2)cc1
IC50 [3]: > 109 µM (inactive)
IC50 [4]: > 83.3 µM (inactive)

O=C(CCc1nc2ccccc2[nH]1)N1CCc2ccccc2C1
IC50 [7]: > 100 µM (inactive)
IC50 [8]: 17.6 µM (active)

O=C(NNC(=O)c1ccccc1O)c1ccc(Br)cc1
IC50 (HEK293 [5]): > 67.5 µM (inactive)
IC50 [6]: > 67.5 µM (inactive)

CCCCC(=O)/N=C(\N)Nc1nc2ccccc2o1
IC50 (HEK293 [5]): > 67.6 µM (inactive)
IC50 [6]: > 67.6 µM (inactive)

CC(C)(C)OC(=O)NCCCCCNC(=O)c1[nH]cnc1C(=O)N1CCc2ccccc2C1
IC50 [7]: > 100 µM (inactive)
IC50 [8]: 14.9 µM (active)

Cc1cccc(COC(=O)CCCNC(=O)c2ccc(Cl)cc2)c1
AC50 [10]: 8.04 µM (active)

O=C1c2ccccc2[C@@H]2C[C@@H](O)[C@H](Nc3cccc4ccccc34)CCN12
AC50 (Vero): 29.8 µM (active)

O=C(O)c1ccc(CNCc2cccc(Cl)c2)cc1
AC50 [9]: > 30 µM (inactive)

O=C(NN=Cc1ccc(N(CCCl)CCCl)cc1Cl)c1cccnc1
AC50 (HEK293 [13]): 1.26 µM (active)

CC(CNC(=O)Cn1ccc(NC(=O)OCc2ccccc2)nc1=O)c1ccccc1 (configuration not stated)
AC50 (Vero): 24.6 µM (active)

CC(OC(=O)c1ccc2c(=O)n3c(nc2c1)CCC3)C(=O)NC1CCCCC1C (configuration not stated)
AC50 (Vero): 31.1 µM (active)

CCOc1ccc(NC(=O)COC(=O)Cc2ccsc2)cc1
AC50 [9]: 22.3 µM (active)

C=C1C(=O)[C@]23C[C@H]1CCC2[C@]1(C)CCC[C@@](C)(C(=O)O)C1C[C@@H]3O (some centres not stated)
AC50 [14]: 1.2 µM (active)
AC50 [15]: > 70 µM (inactive)
IC50 [1]: 7.03 µM (active)
AC50 [16]: 8.47 µM (active)
AC50 (Paired box protein Pax-8): 1.77 µM (active)

O=c1c(-c2ccccc2)c[nH]n1-c1cccc([N+](=O)[O-])c1
CC50 [17]: 100 µM (active)
IC50 (HEK293 [5]): > 67.5 µM (inactive)
IC50 [11]: 48.4 µM (active)
IC50 [6]: > 67.5 µM (inactive)

C[C@H]1CN([C@@H](C)CO)C(=O)c2cccc(NC(=O)NC3CCCCC3)c2O[C@@H]1CN(C)Cc1ccc(C(F)(F)F)cc1
AC50 [18]: 17.1 µM (active)
AC50 [19]: 46.4 µM (active)
AC50 [20]: 19.2 µM (active)
AC50 [21]: 26.4 µM (active)

CC(C)=CCC/C(C)=C/CC/C(C)=C/C(=O)OCC(=O)[C@@]1(O)CC[C@H]2[C@@H]3CCC4=CC(=O)C=C[C@]4(C)[C@H]3[C@@H](O)C[C@@]21C
IC50 [22]: > 10 µM (inactive)
IC50 [23]: > 10 µM (inactive)

O=C(CNc1cccc2ccccc12)N/N=C/c1ccc(OC(=O)/C=C/c2ccco2)cc1
IC50 [12]: > 50 µM (not active)
